Measured values taken from PMC12193579, “Pro-Apoptotic Activity of 1-(4,5,6,7-Tetrabromo-1H-benzimidazol-1-yl)propan-2-one, an Intracellular Inhibitor of PIM-1 Kinase in Acute Lymphoblastic Leukemia and Breast Cancer Cells” (International Journal of Molecular Sciences, 2025).

Tests used:
[1] = biological target: T1, recombinant human CK2 catalytic subunit (rhCK2α) (Homo sapiens, UniProt P68400); assay: radiometric P81 filter isotopic kinase assay, CK2α; format: biochemical
T1 construct: made in house
Description: Synthetic peptide […] served as the substrate for CK2, while peptide […] was used as the substrate for PIM-1.
The synthesized compounds were evaluated for their inhibitory activity against human CK2α, the human CK2 holoenzyme, and PIM-1 using the P81 filter-based isotopic assay, as previously described. […] The experimental data were fitted to a dose–response curve using non-linear regression analysis (variable slope) Y = Bottom + (Top − Bottom)/(1 + 10^((LogIC50 − X) × HillSlope) equation in GraphPad Prism (Prism 9, version 9.0.1).

[2] = system: caspase-3 in CCRF-CEM cells; assay: caspase-3 activation, flow cytometry, CCRF-CEM; format: cell-based, human; conditions: 16 µM, 24 h
Description: Since caspase-3 is a key protease activated in the early stages of apoptosis, we next investigated whether apoptosis in CCRF-CEM cells is mediated through caspase-3 activation. Both cpd. […] 1. The results are consistent with the previously observed pro-apoptotic properties of derivative 1.
Caspase-3 activity was measured using the FITC Active Caspase-3 Apoptosis Kit (BD Pharmingen, San Jose, CA, USA) according to the manufacturer’s instructions. The stained cells were measured with a BD Accuri C6 Plus flow cytometer.

[3] = system: CCRF-CEM cells; assay: cell cycle progression by flow cytometry, CCRF-CEM; format: cell-based, human; conditions: 16 µM, 48 h
Description: Since CK2 and PIM kinases regulate cell cycle progression, their inhibition may alter the distribution of cells across different cell cycle phases. […] For control cells, the percentage of G2/M cells was 17%. In addition to those changes, we observed cells in the sub-G1 phase, which are apoptotic cells. Accumulation of cells in this phase reflects DNA degradation characteristic of apoptotic cells. The largest percentage of these cells, i.e., 32% was determined in 16 µM 1-treated cells (Figure 6a,b).
(§1) CCRF-CEM and MCF-7 cells were cultured in 6-well plates and treated with the tested compounds for 48 h. After exposure to the compounds, the cells were collected, washed with cold PBS, and fixed in 70% ethanol at –20 °C for at least 24 h. Subsequently, the cells were washed in PBS and stained according to the procedure previously described by our group. The cellular DNA content was measured by flow cytometry using a BD Accuri C6 Plus flow cytometer (BD Biosciences, San Jose, CA, USA). The resulting DNA histograms were analyzed with BD Accuri C6 Plus software (San Diego, CA, USA) to assess the distribution of cells across different phases of the cell cycle.

[4] = system: MCF-7 cells; assay: cell cycle progression by flow cytometry, MCF-7; format: cell-based, human; conditions: 48 h
Description: Additionally, we observed the prolongation of G2/M in MCF-7 treated with 1 at the highest concentration. […] 1 induced G2/M phase arrest in MCF-7 with the highest effect detected for the 16 µM concentration, manifested as 32% cells in that stage, whereas in the control, the percentage of G2/M cells was 22%.
as §1

[5] = system: CK2 in MCF-7 cells (Ser529 in NF-κB p65); assay: Western blot of phosphorylated p65 (Ser529), intracellular CK2 inhibition, MCF-7; format: cell-based, human; conditions: 8 µM, 24 h, untreated cells = 1
Description: After 24 h of treatment, we assessed site-specific phosphorylation of Ser529 in NF-κB p65 and Ser112 in BAD—a marker of PIM kinase activity—using Western blot analysis (Figure 8). The data for BAD confirmed intracellular inhibition of this kinase by the tested compounds in both cell lines in a dose-dependent manner. A statistically significant decrease in phosphorylated BAD was observed following treatment with 16 µM of compound 1, with relative protein levels reduced to 0.48 and 0.46 in CCRF-CEM and MCF-7 cells, respectively (Figure 8a–c).
Exponentially growing CCRF-CEM or MCF-7 cells were seeded at a density of 6 × 10^5 cells per 6 cm dish. Compounds were then added, with a final DMSO concentration of 0.5%. Cell lysates were prepared as previously described. The ECL substrate was used for signal detection, and the immunoblots were scanned using a G:BOX Chemi imaging system (Syngene, Cambridge, UK) equipped with GeneSys software, Version 1.4.3.0 (Syngene, Cambridge, UK).
For densitometric analysis, immunoblots were scanned using the G:BOX Chemi system (Syngene), and the band intensities of phosphorylated and total proteins were quantified with GeneSys software (Syngene, Cambridge, UK). The levels of phosphorylated proteins were normalized to GAPDH, with the value for untreated cells set to 1, and subsequently expressed as a percentage relative to the appropriate control.

[6] = system: MDA-MB-231 (breast carcinoma); assay: MTT-based viability assay, MDA-MB-231; format: cell-based, human
Description: 3. The cytotoxicity of the newly obtained inhibitors, i.e., 1, 2, and 4 was tested towards four cell lines, i.e., CCRF-CEM (acute lymphoblastic leukemia ALL), MCF-7 (breast carcinoma), MDA-MB-231 (triple negative breast carcinoma), and Vero (Cercopithecus aethiops kidney).
The CCRF-CEM (acute lymphoblastic leukemia, ALL) and MDA-MB-231 (triple-negative breast adenocarcinoma) cell lines were obtained from the European Collection of Authenticated Cell Cultures (ECACC), while the MCF-7 (hormone-dependent breast adenocarcinoma) and Vero (Cercopithecus aethiops kidney) cell lines were purchased from the American Type Culture Collection (ATCC, Manassas, VA, USA). CCRF-CEM cells were maintained in RPMI-1640 medium, whereas MCF-7 and MDA-MB-231 cells were cultured in DMEM (Sigma-Aldrich Chemical Company, St. Louis, MO, USA). Vero cells were cultured in minimum essential medium eagle (MEM; Sigma-Aldrich). All media were supplemented with 10% fetal bovine serum (FBS), 2 mM L-glutamine, and antibiotics (100 U/mL penicillin and 100 µg/mL streptomycin) (Sigma-Aldrich). Cells were grown in 75-cm^2 culture flasks (Googlab Scientific, Rakocin, Poland) in a humidified atmosphere containing 5% CO2 at 37 °C. All experiments were performed using exponentially growing cultures. Stock solutions of the test compounds were prepared in DMSO and stored at –80 °C for up to one month.
Following incubation with the tested compounds, the MTT assay was carried out as previously described. Optical density was measured at 570 nm using a BioTek microplate reader (Winooski, VT, USA). All measurements were performed in at least three independent biological replicates.

T1 sequence (P68400 whole entry): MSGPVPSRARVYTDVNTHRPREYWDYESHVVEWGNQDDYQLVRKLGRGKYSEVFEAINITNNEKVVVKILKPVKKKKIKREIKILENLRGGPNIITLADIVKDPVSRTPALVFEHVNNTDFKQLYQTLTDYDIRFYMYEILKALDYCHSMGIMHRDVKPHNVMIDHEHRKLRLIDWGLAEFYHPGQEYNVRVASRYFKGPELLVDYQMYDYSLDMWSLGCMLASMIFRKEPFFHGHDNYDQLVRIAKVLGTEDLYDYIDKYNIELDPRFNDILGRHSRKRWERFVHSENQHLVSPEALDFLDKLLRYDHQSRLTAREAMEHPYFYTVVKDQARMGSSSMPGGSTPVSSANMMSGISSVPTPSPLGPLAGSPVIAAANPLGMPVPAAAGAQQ

IC50 [1]: 6.65 ± 0.74 µM
remaining activity at 2 µM ([1]; cpd. concentration 2 μM, read-out: CK2α Residual Activity [%]): 58.5 ± 2.2%
remaining activity at 5 µM ([1]; cpd. concentration 5 μM, read-out: CK2α Residual Activity [%]): 32.3 ± 0.3%
remaining activity at 20 µM ([1]; cpd. concentration 20 μM, read-out: CK2α Residual Activity [%]): 10.2 ± 0.6%
IC50 ([6]; Homo sapiens, MDA-MB-231, MTT, 48 h, read-out: IC50 [µM] MDA-MB-231): 21.2 ± 0.76 µM
Structure (SMILES): CC(=O)Cn1cnc2c(Br)c(Br)c(Br)c(Br)c21 [compound 1, 1-(4,5,6,7-tetrabromo-1H-benzimidazol-1-yl)propan-2-one]
CCRF-CEM cells with the active caspase-3 [2]: 60%
CCRF-CEM cells in the sub-G1 phase [3]: 32%
CCRF-CEM cells in the G2/M phase ([3]; control 17%): 10%
CCRF-CEM cells in the S phase ([3]; control 33%): 20%
MCF-7 cells in the S phase ([4]; 8 µM, control 17%): 11%
MCF-7 cells in the G2/M phase ([4]; 16 µM, control 22%): 32%
relative level of p65-P (Ser529), MCF-7 [5]: 0.84
SI (selectivity index) MDA-MB-231 ([6]; IC50 for Vero/IC50 for cancer cells): 0.95
